Reference: patent US9309242B2, “Substituted pyrido[2,3-b]pyrazines as FGFR kinase inhibitors” (priority 2011, dated 2016)
Where two headings read alike, the source gives them in different places.

Legend:
FGFR1 (h) = FGFR1 (h) (Homo sapiens, UniProt P11362); assay: FGFR1 (enzymatic assay), TR-FRET; format: biochemical; conditions: read-out: FGFR 1 pIC50 (converted)
FGFR2 (h) = FGFR2 (h) (Homo sapiens, UniProt P21802); assay: FGFR2 (enzymatic assay), TR-FRET; format: biochemical; conditions: enzymatic assay, read-out: FGFR 2 pIC50 (converted)
Sequence of FGFR2 (h) (P21802 22-821): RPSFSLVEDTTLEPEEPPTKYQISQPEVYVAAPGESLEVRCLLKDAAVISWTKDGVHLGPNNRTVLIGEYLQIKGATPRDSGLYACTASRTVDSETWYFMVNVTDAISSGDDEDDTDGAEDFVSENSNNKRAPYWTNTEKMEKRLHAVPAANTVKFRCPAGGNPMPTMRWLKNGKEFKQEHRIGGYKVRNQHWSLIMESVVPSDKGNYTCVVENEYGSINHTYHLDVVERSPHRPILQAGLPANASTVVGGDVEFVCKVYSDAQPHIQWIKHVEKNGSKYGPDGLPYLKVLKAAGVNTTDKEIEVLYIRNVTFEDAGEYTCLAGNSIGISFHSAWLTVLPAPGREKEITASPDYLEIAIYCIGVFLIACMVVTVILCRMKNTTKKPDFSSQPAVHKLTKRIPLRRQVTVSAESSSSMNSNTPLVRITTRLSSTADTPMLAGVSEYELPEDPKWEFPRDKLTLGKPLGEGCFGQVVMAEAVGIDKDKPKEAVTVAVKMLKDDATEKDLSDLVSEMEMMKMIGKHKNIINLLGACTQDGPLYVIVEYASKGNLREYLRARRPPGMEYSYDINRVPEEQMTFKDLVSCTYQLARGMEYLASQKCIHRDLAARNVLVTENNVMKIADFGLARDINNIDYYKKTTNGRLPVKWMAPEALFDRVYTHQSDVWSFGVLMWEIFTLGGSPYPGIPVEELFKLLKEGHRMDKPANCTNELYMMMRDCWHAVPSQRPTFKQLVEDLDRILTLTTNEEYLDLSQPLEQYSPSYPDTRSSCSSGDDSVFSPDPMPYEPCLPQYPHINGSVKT
In short: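 Phosphorylation of 500 nM Btn-Flt3 by human FGFR2 (150 ng/ml) is measured at 0.4 μM ATP. The buffer is 50 mM HEPES pH 7.5 containing 6 mM MnCl2, 1 mM DTT, 0.1 mM Na3VO4 and 0.01% Triton-X-100, and compound is tested at 1% DMSO final.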

KDR (h) = KDR (h) (Homo sapiens, UniProt P35968); assay: KDR (VEGFR2) (enzymatic assay), TR-FRET; format: biochemical; conditions: read-out: VEGFR 2 (KDR) pIC50 (converted)
Sequence of KDR (h) (P35968 20-1356): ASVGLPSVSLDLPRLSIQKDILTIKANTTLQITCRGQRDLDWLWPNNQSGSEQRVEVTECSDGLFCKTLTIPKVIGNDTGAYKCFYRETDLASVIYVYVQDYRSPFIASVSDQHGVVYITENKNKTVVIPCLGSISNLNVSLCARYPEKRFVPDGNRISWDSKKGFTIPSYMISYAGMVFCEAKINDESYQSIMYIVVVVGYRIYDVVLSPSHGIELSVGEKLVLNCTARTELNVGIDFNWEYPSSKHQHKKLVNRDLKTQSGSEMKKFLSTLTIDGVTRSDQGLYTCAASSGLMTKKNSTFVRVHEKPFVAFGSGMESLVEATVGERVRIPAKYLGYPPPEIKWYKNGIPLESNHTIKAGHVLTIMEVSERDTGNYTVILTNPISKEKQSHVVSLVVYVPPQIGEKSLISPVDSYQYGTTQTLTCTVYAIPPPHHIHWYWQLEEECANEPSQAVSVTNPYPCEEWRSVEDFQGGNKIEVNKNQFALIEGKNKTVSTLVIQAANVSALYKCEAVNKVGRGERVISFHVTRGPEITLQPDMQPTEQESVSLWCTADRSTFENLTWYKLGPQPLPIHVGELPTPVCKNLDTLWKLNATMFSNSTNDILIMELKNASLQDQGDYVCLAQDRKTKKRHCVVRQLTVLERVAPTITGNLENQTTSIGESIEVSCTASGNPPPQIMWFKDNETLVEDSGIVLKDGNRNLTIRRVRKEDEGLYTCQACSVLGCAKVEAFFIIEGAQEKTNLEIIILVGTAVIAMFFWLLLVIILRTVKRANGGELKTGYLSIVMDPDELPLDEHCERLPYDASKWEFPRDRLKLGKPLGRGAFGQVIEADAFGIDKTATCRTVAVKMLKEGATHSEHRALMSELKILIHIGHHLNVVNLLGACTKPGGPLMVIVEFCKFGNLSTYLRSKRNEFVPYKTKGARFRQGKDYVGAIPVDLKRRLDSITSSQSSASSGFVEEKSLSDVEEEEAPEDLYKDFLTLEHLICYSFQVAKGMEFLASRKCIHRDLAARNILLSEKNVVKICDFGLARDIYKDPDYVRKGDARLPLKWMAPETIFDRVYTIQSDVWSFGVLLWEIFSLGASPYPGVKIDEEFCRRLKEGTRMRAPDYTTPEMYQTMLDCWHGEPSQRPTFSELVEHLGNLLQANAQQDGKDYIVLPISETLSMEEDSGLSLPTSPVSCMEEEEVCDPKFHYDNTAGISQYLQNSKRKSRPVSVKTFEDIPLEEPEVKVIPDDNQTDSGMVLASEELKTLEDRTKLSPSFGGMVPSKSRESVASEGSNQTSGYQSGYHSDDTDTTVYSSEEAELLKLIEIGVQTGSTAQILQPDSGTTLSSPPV
In short: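 3 μM ATP, 500 nM Btn-Flt3 substrate, 150 ng/ml kinase; HEPES pH 7.5 with MnCl2, DTT, vanadate, Triton; 1% DMSO. 120 min RT. Stop: EDTA + Eu-anti-P-Tyr + SA-XL-665, 60 min RT. Readout TR-FRET ex340/em620, 655 nm, RFU.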

[1] = biological target: T1, Ba/F3-FGFR1-transfected cells (Homo sapiens, UniProt P11362); assay: Ba/F3-FGFR1 (minus IL3) cellular proliferation assay, Alamar Blue; format: cell-based
T1 construct: BAF3-FGFR1 (MIN IL3) pIC50; other: minus IL3
T1 sequence (P11362 whole entry, change not shown): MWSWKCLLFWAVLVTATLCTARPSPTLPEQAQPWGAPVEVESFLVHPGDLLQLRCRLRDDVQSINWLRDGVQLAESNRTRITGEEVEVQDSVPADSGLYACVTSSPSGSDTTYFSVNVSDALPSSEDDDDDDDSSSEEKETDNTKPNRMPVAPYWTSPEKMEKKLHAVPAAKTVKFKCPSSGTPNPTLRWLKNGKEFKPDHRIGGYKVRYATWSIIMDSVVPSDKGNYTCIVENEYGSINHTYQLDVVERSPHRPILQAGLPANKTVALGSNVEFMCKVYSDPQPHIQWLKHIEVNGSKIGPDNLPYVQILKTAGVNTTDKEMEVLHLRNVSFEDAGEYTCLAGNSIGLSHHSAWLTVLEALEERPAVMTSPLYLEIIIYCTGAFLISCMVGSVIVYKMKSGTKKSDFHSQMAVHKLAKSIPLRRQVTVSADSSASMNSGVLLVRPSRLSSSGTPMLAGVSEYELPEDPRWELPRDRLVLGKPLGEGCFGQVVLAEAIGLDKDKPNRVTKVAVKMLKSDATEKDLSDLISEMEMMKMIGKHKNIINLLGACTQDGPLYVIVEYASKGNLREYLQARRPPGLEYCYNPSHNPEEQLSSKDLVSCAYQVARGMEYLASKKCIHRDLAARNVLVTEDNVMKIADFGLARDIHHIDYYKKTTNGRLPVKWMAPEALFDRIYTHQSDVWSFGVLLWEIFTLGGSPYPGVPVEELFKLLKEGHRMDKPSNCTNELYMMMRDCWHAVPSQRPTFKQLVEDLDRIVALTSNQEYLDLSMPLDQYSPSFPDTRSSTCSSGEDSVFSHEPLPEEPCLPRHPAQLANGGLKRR
In short: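 Ba/F3-FGFR1 cells (20000 per well) were exposed to compound for 24 h at 37 °C in RPMI-1640 with 10% FBS. Alamar Blue (resazurin) was then added for 4 h, and fluorescence was read at ex 540/em 590 nm.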

[2] = tested on: Ba/F3-FGFR3-transfected cells; assay: Ba/F3-FGFR3 (plus IL3) cellular proliferation assay, counterscreen with 10 ng/ml murine IL3; format: cell-based; conditions: plus IL3 (10 ng/ml murine IL3, counterscreen); read-out: BAF3-FGFR3 (PLUS IL3) pIC50 (converted)
In short: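 Ba/F3 cells transfected with FGFR3, 20000/well in phenol red-free RPMI-1640 with 10% FBS, exposed to compound for 24 h at 37 °C, 5% CO2. Alamar Blue (resazurin) added for 4 h more; fluorescence read at ex 540/em 590 nm. Counterscreen run the same way with 10 ng/ml murine IL3.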

[3] = tested on: Ba/F3-KDR-transfected cells; assay: Ba/F3-KDR (plus IL3) cellular proliferation assay, counterscreen with 10 ng/ml murine IL3; format: cell-based; conditions: plus IL3 (10 ng/ml murine IL3, counterscreen); read-out: BAF3-KDR (PLUS IL3) pIC50 (converted)
In short: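 Read-out: resazurin-based Alamar Blue fluorescence (ex. 540, em. 590 nm) after 4 h. Before that, cells were incubated with compound for 24 h at 37° C. The counterscreen ran identically but with IL3 supplemented.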

[4] = biological target: Ba/F3-FGFR4-transfected cells (Homo sapiens, UniProt P22455); assay: Ba/F3-FGFR4 cellular proliferation assay, Alamar Blue; format: cell-based
Sequence of Ba/F3-FGFR4-transfected cells (P22455 whole entry, change not shown): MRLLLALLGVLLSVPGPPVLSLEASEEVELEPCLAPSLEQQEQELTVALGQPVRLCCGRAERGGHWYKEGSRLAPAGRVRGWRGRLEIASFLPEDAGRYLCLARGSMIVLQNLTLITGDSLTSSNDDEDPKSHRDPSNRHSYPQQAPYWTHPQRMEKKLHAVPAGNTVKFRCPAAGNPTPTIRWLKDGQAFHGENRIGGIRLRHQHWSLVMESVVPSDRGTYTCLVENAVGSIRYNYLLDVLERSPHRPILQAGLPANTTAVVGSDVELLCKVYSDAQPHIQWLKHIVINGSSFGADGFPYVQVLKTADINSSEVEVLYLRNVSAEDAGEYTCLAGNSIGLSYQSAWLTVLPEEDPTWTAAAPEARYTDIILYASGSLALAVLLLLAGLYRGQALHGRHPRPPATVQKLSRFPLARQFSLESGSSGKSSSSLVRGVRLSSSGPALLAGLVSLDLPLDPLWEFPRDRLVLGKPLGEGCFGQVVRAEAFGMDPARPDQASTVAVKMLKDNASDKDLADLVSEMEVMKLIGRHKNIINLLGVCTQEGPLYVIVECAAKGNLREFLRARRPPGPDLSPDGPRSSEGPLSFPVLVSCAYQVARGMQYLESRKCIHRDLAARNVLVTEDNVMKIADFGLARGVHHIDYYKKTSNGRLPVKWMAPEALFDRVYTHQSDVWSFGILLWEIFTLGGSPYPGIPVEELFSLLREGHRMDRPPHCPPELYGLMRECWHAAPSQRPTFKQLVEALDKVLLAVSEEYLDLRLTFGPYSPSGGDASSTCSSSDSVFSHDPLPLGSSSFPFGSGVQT
In short: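 Fluorescence read-out (ex. 540 nm, em. 590 nm) of resazurin-based Alamar Blue after 4 h, following 24 h compound exposure of Ba/F3-FGFR4-transfected cells (20000/well) at 37° C, 5% CO2.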

[5] = average values if tested multiple times

Sequence of FGFR1 (h) (P11362 22-822): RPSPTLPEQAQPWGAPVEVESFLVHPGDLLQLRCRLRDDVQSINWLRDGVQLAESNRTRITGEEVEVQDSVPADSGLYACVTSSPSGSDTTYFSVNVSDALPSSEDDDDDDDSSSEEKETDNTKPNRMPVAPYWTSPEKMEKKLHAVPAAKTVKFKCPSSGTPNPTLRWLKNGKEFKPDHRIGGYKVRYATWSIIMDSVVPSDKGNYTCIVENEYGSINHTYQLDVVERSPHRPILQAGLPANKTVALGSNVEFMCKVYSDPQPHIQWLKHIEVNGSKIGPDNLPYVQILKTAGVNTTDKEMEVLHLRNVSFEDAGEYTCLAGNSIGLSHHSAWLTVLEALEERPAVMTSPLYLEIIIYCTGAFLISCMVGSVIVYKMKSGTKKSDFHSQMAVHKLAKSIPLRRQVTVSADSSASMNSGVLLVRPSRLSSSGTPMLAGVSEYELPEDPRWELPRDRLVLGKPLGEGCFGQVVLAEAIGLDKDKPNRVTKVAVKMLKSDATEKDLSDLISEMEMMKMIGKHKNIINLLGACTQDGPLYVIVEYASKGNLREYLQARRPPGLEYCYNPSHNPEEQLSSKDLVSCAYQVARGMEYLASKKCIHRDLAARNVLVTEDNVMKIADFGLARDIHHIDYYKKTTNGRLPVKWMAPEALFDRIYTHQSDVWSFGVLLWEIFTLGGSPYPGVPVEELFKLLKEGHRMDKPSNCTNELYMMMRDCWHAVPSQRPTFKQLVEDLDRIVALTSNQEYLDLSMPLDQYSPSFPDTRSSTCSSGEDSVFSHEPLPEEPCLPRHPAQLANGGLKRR

SMILES | IC50 (FGFR1 (h); [5]) | IC50 (FGFR2 (h); [5]) | IC50 (KDR (h); [5]) | BAF3-FGFR1 (MIN IL3) pIC50 [1] | IC50 [2] | IC50 [3] | BAF3-FGFR4 pIC50 [4] | IC50 (FGFR1 (h)) | IC50 (FGFR2 (h)) | IC50 (KDR (h))
COc1cc(OC)c(F)c(N(Cc2nc3c([nH]2)CCNC3)c2ccc3ncc(-c4cnn(C)c4)nc3n2)c1 [Compound 104] | 2.57 nM | 3.24 nM | 26.3 nM | 6.70 | > 10000 nM | > 10000 nM | 5.74 | – | – | –
CNCCN(c1ccc2ncc(-c3cn[nH]c3)nc2n1)c1c(F)c(OC)cc(OC)c1F [Compound 106] | 1.86 nM | 2.14 nM | 25.1 nM | 7.86 | > 10000 nM | > 10000 nM | ~6.65 | – | – | –
COc1cc(OC)c(F)c(N(Cc2nc[nH]c2C)c2ccc3ncc(-c4cnn(C)c4)nc3n2)c1 [Compound 109] | 1.15 nM | 2.29 nM | 20 nM | 7.85 | > 10000 nM | > 10000 nM | ~7.05 | – | – | –
COc1cc(OC)c(F)c(N(Cc2ccnn2C)c2ccc3ncc(-c4cnn(C)c4)nc3n2)c1 [Compound 113] | 2 nM | 2.19 nM | 51.3 nM | 7.19 | > 10000 nM | > 10000 nM | 6.63 | – | – | –
COc1cc(/N=c2\ccc3ncc(-c4cnn(C)c4)nc3n2Cc2ccnn2C)c(F)c(OC)c1 [Compound 114] | 0.933 nM | 1.62 nM | 4.9 nM | 7.63 | > 10000 nM | > 10000 nM | 7.14 | – | – | –
COc1cc(/N=c2\ccc3ncc(-c4cnn(C)c4)nc3n2Cc2cc[nH]n2)c(F)c(OC)c1 [Compound 115] | 0.708 nM | 1.58 nM | 5.89 nM | ~8.17 | > 10000 nM | > 10000 nM | ~7.59 | – | – | –
COc1cc(OC)c(F)c(N(Cc2cc[nH]n2)c2ccc3ncc(-c4cnn(C)c4)nc3n2)c1 [Compound 118] | 0.759 nM | 1.32 nM | 6.46 nM | 8.00 | > 10000 nM | > 10000 nM | ~7.56 | – | – | –
COc1cc(/N=c2\ccc3ncc(-c4cnn(C)c4)nc3n2CCCN2CCCC2=O)c(F)c(OC)c1 [Compound 119] | – | – | – | ~7.92 | > 3980 nM | > 3980 nM | 7.28 | 1.41 nM | 1.86 nM | 6.17 nM
COc1cc(OC)c(F)c(N(CCCN2CCCC2=O)c2ccc3ncc(-c4cnn(C)c4)nc3n2)c1 [Compound 120] | – | – | – | 7.27 | > 10000 nM | > 10000 nM | 6.84 | 4.17 nM | 3.02 nM | 19.1 nM
CNCCN(c1ccc2ncc(-c3cnn(C)c3)nc2n1)c1c(F)c(O)cc(OC)c1F [Compound 122] | – | – | – | 6.74 | > 10000 nM | > 10000 nM | 5.67 | 2.82 nM | 3.31 nM | 50.1 nM
COc1cc(/N=c2\ccc3ncc(-c4cnn(C)c4)nc3n2CC2COC(=O)N2)c(F)c(OC)c1 (stereo not shown) [Compound 123] | – | – | – | 7.21 | > 10000 nM | > 10000 nM | 6.62 | 1.35 nM | 1.26 nM | 21.9 nM
COc1cc(OC)c(F)c(N(CC2COC(=O)N2)c2ccc3ncc(-c4cnn(C)c4)nc3n2)c1 (stereo not shown) [Compound 124] | – | – | – | ~7.16 | > 10000 nM | > 10000 nM | ~6.64 | 3.09 nM | 2.75 nM | 60.3 nM
COc1cc(OC)c(F)c(N(Cc2cn[nH]c2)c2ccc3ncc(-c4cnn(C)c4)nc3n2)c1 [Compound 125] | – | – | – | 7.61 | > 10000 nM | > 10000 nM | ~7.15 | 0.851 nM | 0.794 nM | 8.71 nM
COc1cc(OC)c(F)c(N(Cc2ccn(C)n2)c2ccc3ncc(-c4cnn(C)c4)nc3n2)c1 [Compound 128] | – | – | – | 8.10 | > 10000 nM | > 10000 nM | 7.12 | 1.32 nM | 1.55 nM | 7.94 nM
COc1cc(OC)cc(N(CC2CCCCO2)c2ccc3ncc(-c4cnn(C)c4)nc3n2)c1 (stereo not shown) [Compound 129] | – | – | – | ~7.15 | > 10000 nM | > 10000 nM | 6.36 | 3.47 nM | 2.4 nM | 58.9 nM
COc1cc(OC)c(F)c(N(Cc2nccn2C)c2ccc3ncc(-c4cnn(C)c4)nc3n2)c1 [Compound 131] | – | – | – | 7.62 | > 10000 nM | > 10000 nM | 6.62 | 2.14 nM | 2.63 nM | 19.1 nM
COc1cc(OC)c(F)c(N(Cc2nncn2C)c2ccc3ncc(-c4cnn(C)c4)nc3n2)c1 [Compound 132] | – | – | – | 6.62 | > 10000 nM | > 10000 nM | ~6.13 | 5.62 nM | 3.02 nM | 42.7 nM
COc1cc(OC)cc(N(CCCN2CCCC2=O)c2ccc3ncc(-c4cnn(C)c4)nc3n2)c1 [Compound 134] | – | – | – | 6.43 | > 10000 nM | > 10000 nM | 5.99 | 8.71 nM | 3.09 nM | 35.5 nM
COc1cc(OC)c(F)c(N(Cc2nc(C)c[nH]2)c2ccc3ncc(-c4cnn(C)c4)nc3n2)c1 [Compound 135] | – | – | – | 8.82 | > 10000 nM | > 10000 nM | 8.05 | 1.17 nM | 1.78 nM | 8.71 nM
